The source of these data is patent EP0804147B1, “DERMATO-COSMETOLOGIC COMPOSITION” (PIERRE FABRE DERMO-COSMETIQUE, priority 1994, dated 1995).

Read-outs that look alike come from different tables or passages of the source. A value given as a limit tells only on which side of the number the result lay.

The nature of assay [1]: Water retention capacity of skin flaps (stratum corneum samples soaked in active solution, dried, rehydrated; desorbed water quantified by GC-MS). Conditions: 90% d'humidité relative. An excerpt:
Des échantillons de stratum corneum sont immergés pendant 24 heures dans une solution de l'actif à analyser. Ils sont ensuite séchés pendant 24 heures dans un dessicateur sur silicagel puis réhydratés pendant 48 heures dans une enceinte à 90% d'humidité relative.
Ces échantillons sont analysés après l'étape de séchage et après l'étape de réhydratation. La technique utilisée est la chromatographie en phase gazeuse couplée à la spectrométrie de masse.
Les échantillons de peau pesés sont placés dans un four chauffé à 100°C, la vapeur d'eau désorbée est entrainée par un gaz de balayage sec vers le chromatographe où elle sera détectée.
Un spectre est obtenu en sortie de l'appareil. L'eau désorbée est quantifiée par la mesure de l'aire du pic. Le spectromètre de masse couplé à la CPG permet de s'assurer que le composé désorbé et quantifié est bien de l'eau.
Cette technique allie donc une analyse qualitative à une analyse quantitative. Les résultats sont donnés en pourcentage d'eau retenue et permettent donc d'évaluer le pouvoir hygroscopique des produits.
Les résultats sont présentés sur la figure 1.

Another assay relates to Corynébactéries. The conditions noted are these: bacteria involved in body odour (armpits).
For assay [2] the following is noted: for effet hydratant: topical on forearm, 0-6 h. An excerpt: La spectroscopie infrarouge in vivo est une technique non invasive, rapide et de grande sensibilité. Les molécules absorbent toutes différemment le rayonnement infrarouge. C'est en analysant leur spectre d'absorption que l'on peut retrouver la structure de la molécule.
En fonction de l'application de divers traitements, des liaisons entre l'eau apportée et la peau se créent et entraînent des modifications de certaines bandes d'absorption.
Ainsi seront analysés sur le spectre les pics suivants : • le pic d'absorption dû à l'élongation de la liaison OH de l'eau à 2100 cm-1. Les variations d'intensité de ce pic ne sont pas visibles à l'oeil nu mais elles sont significatives et donc enregistrées. • le pic d'absorption dû à l'élongation des liaisons amide I à 1640 cm-1. L'élongation de cette liaison se trouve modifiée lorsque des liaisons hydrogènes se créent par apport d'eau. • le pic d'absorption dû à l'élongation des liaisons amide II à 1540 cm-1. Ce pic n'est influencé par la présence d'eau que de façon négligeable; il est donc utilisé pour pondérer les deux pics précédents.
Les préparations cosmétiques à tester sont appliquées sur une zone délimitée de l'avant-bras. Une zone non traitée est conservée comme témoin.
Pour chaque spectre obtenu sont mesurés les rapports suivants : (amideI)/(amideII)appelé facteur d'hydratation (ou MF); (eau)/(amideII) [formula]
Ces rapports sont calculés aux temps 0, 1, 2, ..., 6 heures et les courbes suivantes sont tracées : MF témoin(t) - MF bras traité(t) = f(t) avec t, représentant le temps en heures.; (eau)/(amideII)témoin(t) -(eau)/(amideII)bras traité(t) = f(t) [formula]
L'allure de ces courbes est ensuite comparée. En effet, le pic des amides I pourrait être directement influencé par le produit appliqué alors que le pic à 2100 cm-1 n'est influencé que par l'eau.
Si les deux courbes obtenues évoluent dans le même sens, on peut considérer que la variation enregistrée rend bien compte de la fixation de l'eau sur la peau. Dans le cas contraire, il faut émettre des réserves sur les conclusions à apporter.
On teste par cette technique des crèmes contenant 5% et 13% de glycolate de guanidine, de formules suivantes (les pourcentages sont exprimés en p/p) :
Les effets sont comparés avec ceux de compositions contenant : • 15% glycérol • 5% glycérol • 13% lactate d'ammonium • 5% lactate d'ammonium.

Assay [3] relates to contaminations microbiennes. Conditions: cream containing 13%, no other preservative.
For assay [4] the following is noted: compared with lactate d'ammonium.

As to `OCC(O)CO` [glycérol], the eau retenue in assay [1] (skin treated with 15% solution) turned out to be 125%.

Regarding `CC(O)C(=O)O` (stereo not shown) [lactate d'ammonium], the eau retenue in assay [1] (skin treated with 13% solution) is on record as 135%.

Take glycolate de guanidine: the “activité bactéricide” value with Corynébactéries is reported as “actif sur des bactéries impliquées dans la formation d'odeurs corporelles”. Also, the effet hydratant entry in assay [2] (cream containing 5% (formula B), figure 3) is reported as “beaucoup plus hydratante que celle contenant 5% de glycérol”; in assay [2] (cream containing 13% (formula A), figure 2), “beaucoup plus hydratante que le placebo et que la crème contenant 13% de lactate d'ammonium”. For the same molecule, the “durée de la différence d'hydratation” value was greater than 6 heures in assay [2] (cream containing 5% vs 5% glycérol cream); greater than 6 heures in assay [2] (cream containing 13% vs placebo and 13% lactate d'ammonium cream). Also, the “protection contre les contaminations microbiennes (conservateur)” value in assay [3] is recorded as “s'auto-protège contre les contaminations microbiennes”. The molecule also gave an eau retenue in assay [1] (skin treated with 13% solution) of 300%. Also, the “propriétés kératorégulatrices” value in assay [4] is reported as “supérieures à celles du lactate d'ammonium”.
